From PMC10348545 (PLOS Pathogens, 2023) come the findings set out here.

The structures appear in SMILES notation.

The test concerns the target T1, CbMip (Coxiella burnetii, UniProt P51752).
T1 construct: gene mip
As to the kind of experiment: biochemical.

T1 sequence (P51752 22-230 limits assumed): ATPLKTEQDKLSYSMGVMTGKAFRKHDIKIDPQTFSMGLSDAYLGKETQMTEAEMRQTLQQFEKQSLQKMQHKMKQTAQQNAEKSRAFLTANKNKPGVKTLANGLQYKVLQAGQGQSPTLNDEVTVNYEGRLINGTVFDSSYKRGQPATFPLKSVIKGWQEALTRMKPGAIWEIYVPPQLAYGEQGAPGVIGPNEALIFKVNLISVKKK

`O=C(O[C@@H](Cc1ccccc1)C(=O)NCc1cccnc1)C1CCCCN1S(=O)(=O)Cc1ccccc1` (some centres unmarked) [ANCH37] gave a Ki of 4.6 ± 0.9 µM.

As for `O=C(NCCOC(=O)[C@@H]1CCCCN1S(=O)(=O)Cc1ccccc1)c1cccnc1` [SF235], the Ki came out at 18 ± 4 µM.
